Some test systems named below: 786-0 renal; SK-MEL-28 melanoma; HOP-92 NSCLC; SN12C renal; NCI-H460 lung; TK-10 renal; SW-620 colon; SF-268 CNS; BT-549 breast.
What all share (assay): growth of human tumour cells (NCI), 48 h

The values that follow come from PubChem BioAssay (NCI).

Each structure is given as a SMILES string.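 Following 48 hours of exposure in 96-well plates, responses at five concentrations were used to interpolate endpoints linearly. Here, GI50 denotes the concentration required for 50% inhibition of growth. TGI: total growth inhibition.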

Turning to `COC(=O)CCC(=O)CC(=O)C(=O)Nc1ccc(F)cc1`, the TGI in the test with 786-0 renal, in the test with SK-MEL-28 melanoma, in the test with HOP-92 NSCLC, with SN12C renal, in the test with NCI-H460 lung and with TK-10 renal was > 100 µM each time. Also, the TGI in the test on SW-620 colon and in the test on SF-268 CNS was > 100 µM in each case.

As for `[N-]=[N+]=Nc1ccccc1-[n+]1noc([O-])c1Br`, the TGI with 786-0 renal, with SK-MEL-28 melanoma, in the test with HOP-92 NSCLC, in the test on SN12C renal, in the test on NCI-H460 lung and with TK-10 renal was > 100 µM throughout. In addition, the TGI in the test with SW-620 colon and in the test on SF-268 CNS was > 100 µM throughout.

Regarding `COCC1C(=O)c2cc3c(cc2C12C=CC1(C=C2)OCCO1)OCO3` (stereo not given), the TGI turned out to be 4.54 µM in the test on 786-0 renal; 28.1 µM with SK-MEL-28 melanoma; 29.6 µM in the test with HOP-92 NSCLC; 22.9 µM in the test on SN12C renal; 31.9 µM in the test on NCI-H460 lung; 34.9 µM in the test with TK-10 renal. For the same compound, the TGI in the test on SW-620 colon is 8.76 µM; with SF-268 CNS, 16 µM.

`CNc1nnnn1C1OC(CO)C(O)C1O` (stereo not given): the TGI in the test with 786-0 renal, with SN12C renal, in the test on NCI-H460 lung, in the test with TK-10 renal, in the test with SW-620 colon and in the test on SF-268 CNS was > 100 µM in each case.

On to `COC(=O)CSc1ccccc1`, for which the TGI in the test on 786-0 renal was 30.1 µM; in the test with HOP-92 NSCLC it was 99.1 µM; with SN12C renal, > 100 µM; in the test with NCI-H460 lung, > 100 µM; with TK-10 renal it was > 100 µM; in the test on SW-620 colon it was > 100 µM. Besides, the TGI in the test with SF-268 CNS was > 100 µM.

In the case of `N#Cc1ccc(/C=N\N2C(=O)c3ccccc3C2=O)cc1`, the TGI in the test with 786-0 renal, in the test with SK-MEL-28 melanoma, with HOP-92 NSCLC, in the test with SN12C renal, in the test on NCI-H460 lung and in the test with TK-10 renal was > 100 µM throughout. The TGI in the test on SW-620 colon and with SF-268 CNS was > 100 µM throughout.

Regarding `Cn1c(=O)nc2n(-c3ccc(F)cc3)c3ccccc3nc-2c1=O`, the TGI with 786-0 renal is > 100 µM; in the test with SN12C renal, 56.6 µM; with NCI-H460 lung, 80.7 µM; in the test on TK-10 renal it was 89.1 µM; in the test with SW-620 colon it was 34 µM; in the test on SF-268 CNS, > 100 µM.

Regarding `COc1cc(-c2cc(/C=C/C(=O)c3ccc4c(c3)OCO4)[nH]n2)cc(OC)c1OC`, the GI50 was 2.33 µM in the test on 786-0 renal; 2.48 µM in the test with SK-MEL-28 melanoma; 3.94 µM in the test with SN12C renal; 2.12 µM with NCI-H460 lung; 2.33 µM with TK-10 renal; 2.97 µM with SF-268 CNS. The TGI with 786-0 renal was 5.82 µM; in the test with SK-MEL-28 melanoma it was 7.34 µM; with SN12C renal it was > 100 µM; in the test with NCI-H460 lung it was 5.1 µM; in the test on TK-10 renal, 5.73 µM; in the test with SF-268 CNS, 14.5 µM.

In the case of `COc1cc(C2c3cc4c(cc3[C@H](NC(=O)c3cccs3)C3COC(=O)[C@H]23)OCO4)cc(OC)c1OC` (stereo not given in full), the TGI was determined as 21.7 µM in the test on 786-0 renal; 83.9 µM with SK-MEL-28 melanoma; 70.3 µM in the test with HOP-92 NSCLC; 16.4 µM in the test on BT-549 breast; 19.5 µM with SN12C renal; 10.8 µM in the test with NCI-H460 lung. The figures for the TGI in the test on TK-10 renal, in the test on SW-620 colon and in the test on SF-268 CNS were > 100 µM, > 100 µM and > 40.8 µM, respectively.

For the compound `COc1ccc2nc3cc(Cl)ccc3c(NCCC(=O)OCC(O)C(O)C(O[C@H](C)C(=O)NC(C)C(=O)NC(CCC(N)=O)C(=O)OCc3ccccc3)C(C=O)NC(C)=O)c2c1` (stereo not given in full), the TGI is 31.9 µM in the test with 786-0 renal; 32.1 µM in the test with SK-MEL-28 melanoma; 31.9 µM with HOP-92 NSCLC; 31.4 µM with SN12C renal; 30.4 µM in the test with NCI-H460 lung; 46.2 µM with TK-10 renal. Besides, the TGI in the test on SW-620 colon came out at 30.9 µM; with SF-268 CNS, 32.8 µM.

Consider `COc1ccc(C(=O)C(c2ccc(OC)cc2)C2C(=O)Oc3ccccc32)cc1` (stereo not given), for which the GI50 with 786-0 renal, in the test with SK-MEL-28 melanoma, in the test with HOP-92 NSCLC, in the test on SN12C renal, with NCI-H460 lung and in the test with TK-10 renal was > 100 µM each time. Also, the GI50 in the test on SW-620 colon and in the test on SF-268 CNS was > 100 µM throughout. Besides, the TGI in the test with 786-0 renal, in the test with SK-MEL-28 melanoma, with HOP-92 NSCLC, in the test with SN12C renal, with NCI-H460 lung and in the test with TK-10 renal was > 100 µM throughout. The TGI in the test with SW-620 colon and in the test with SF-268 CNS was > 100 µM throughout.

With `COc1ccc(C(=O)/C(=N/Nc2ccccc2)c2ccc(OC)cc2)cc1`, the TGI in the test on 786-0 renal, in the test with SK-MEL-28 melanoma, with SN12C renal, in the test with NCI-H460 lung, in the test with TK-10 renal and with SW-620 colon was > 100 µM each time.

On to `COc1ccc(NC(=O)CC/C(CC(=O)c2ccccc2Cl)=N\Nc2nnc(C)n2N)cc1`, for which the TGI in the test with 786-0 renal, in the test on SK-MEL-28 melanoma, in the test on HOP-92 NSCLC, in the test with SN12C renal, in the test on NCI-H460 lung and in the test on TK-10 renal was > 100 µM throughout. Further, the TGI with SW-620 colon and in the test with SF-268 CNS was > 100 µM throughout.

`O=C(CC1(O)C(=O)Nc2c(Cl)cccc21)c1ccccc1` (stereo not given): the TGI in the test with 786-0 renal, in the test on SK-MEL-28 melanoma, in the test on HOP-92 NSCLC, in the test on SN12C renal, with NCI-H460 lung and with TK-10 renal was > 100 µM each time. The TGI with SW-620 colon and in the test on SF-268 CNS was > 100 µM in each case.

Consider `CN(C)c1ccc(/C=C/C(=O)c2ccccc2)cc1Br`, for which the TGI in the test on 786-0 renal is 31.8 µM; with SK-MEL-28 melanoma, 30.5 µM; in the test with SN12C renal, 45.2 µM; in the test with NCI-H460 lung, > 100 µM; in the test with TK-10 renal, 74.2 µM; in the test with SW-620 colon it was 43.8 µM. Besides, the TGI with SF-268 CNS is 49.3 µM.
